Results: US10681909B2, “Herbicidal triazoles” (FMC Corporation, priority 2014, dated 2020)

How the values were obtained:
lambsquarters = test: Test C postemergence; type: in vivo, Chenopodium album
Text: (§1) Seeds of plant species selected from blackgrass (Alopecurus myosuroides), ryegrass, Italian (Italian ryegrass, Lolium multiflorum), wheat (winter wheat, Triticum aestivum), galium (catchweed bedstraw, Galium aparine), corn (Zea mays), crabgrass, large (large crabgrass, Digitaria sanguinalis), foxtail, giant, (giant foxtail, Setaria faberii), johnsongrass (Sorghum halepense), lambsquarters (Chenopodium album), morningglory (Ipomoea coccinea), nutsedge, yellow (yellow nutsedge, Cyperus esculentus), pigweed (Amaranthus retroflexus), ragweed (common ragweed, Ambrosia elatior), soybean (Glycine max), barnyardgrass (Echinochloa crus-galli), oilseed rape (Brassica napus), waterhemp (common waterhemp, Amaranthus rudis), and velvetleaf (Abutilon theophrasti) were planted into a blend of loam soil and sand and treated preemergence with test chemicals formulated in a non-phytotoxic solvent mixture which included a surfactant. At the same time, plants selected from these crop and weed species and also chickweed (common chickweed, Stellaria media), oat, wild (wild oat, Avena fatua), and kochia (Kochia scoparia), were planted in pots containing Sunshine Redi-Earth® planting medium comprising spaghnum peat moss, vermiculite, starter nutrients and dolomitic limestone and treated with postemergence applications of test chemicals formulated in the same manner. Plants ranged in height from 2 to 18 cm (1- to 4-leaf stage) for postemergence treatments. […] A dash (-) response means no test result.

barnyardgrass [1] = test: Test A preemergence; type: in vivo, Echinochloa crus-galli; details: 0 to 100 scale (0 no effect, 100 complete control)
Procedure, shortened: (§2)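 For preemergence, seeds were sown in a loam soil-sand blend and given a directed soil spray of test chemical in a non-phytotoxic solvent mixture with surfactant. For postemergence, plants in pots of the same blend were sprayed with the same formulation at the one- to two-leaf stage, 2 to 10 cm tall.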

morningglory = test: Test C postemergence; type: in vivo, Ipomoea coccinea
Text: as §1

sedge, umbrella = test: Test B flooded paddy test; type: in vivo, Cyperus difformis; details: 250 g ai/ha, applied to paddy water at 2-leaf stage, visual rating after 13 to 15 d, scale 0 (no effect) to 100 (complete control)
Procedure, shortened: (§3)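 Pots were flooded to 3 cm above the soil at treatment, and compounds were applied directly into the paddy water. That depth was held throughout. After 13 to 15 d in a greenhouse, plants were rated visually against untreated controls.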

ryegrass, Italian = test: Test C postemergence; type: in vivo, Lolium multiflorum
Text: as §1

nutsedge, yellow = test: Test C postemergence; type: in vivo, Cyperus esculentus
Text: as §1

barnyardgrass [2] = test: Test A postemergence; type: in vivo, Echinochloa crus-galli; details: 0 to 100 scale (0 no effect, 100 complete control), approx. 10 d
Procedure, shortened: as §2

blackgrass = test: Test C postemergence; type: in vivo, Alopecurus myosuroides
Text: as §1

wheat = test: Test A postemergence; type: in vivo, Triticum aestivum; details: 0 to 100 scale (0 no effect, 100 complete control), approx. 10 d
Procedure, shortened: as §2

corn = test: Test A postemergence; type: in vivo, Zea mays; details: 0 to 100 scale (0 no effect, 100 complete control), approx. 10 d
Procedure, shortened: as §2

foxtail, giant = test: Test C postemergence; type: in vivo, Setaria faberii
Text: as §1

waterhemp = test: Test C postemergence; type: in vivo, Amaranthus rudis
Text: as §1

kochia = test: Test C postemergence; type: in vivo, Kochia scoparia
Text: as §1

barnyardgrass [3] = test: Test B flooded paddy test; type: in vivo, Echinochloa crus-galli; details: 250 g ai/ha, applied to paddy water at 2-leaf stage, visual rating after 13 to 15 d, scale 0 (no effect) to 100 (complete control)
Procedure, shortened: as §3

wheat (winter wheat) = test: Test C postemergence; type: in vivo, Triticum aestivum
Text: as §1

rice = test: Test B flooded paddy test; type: in vivo, Oryza sativa; details: 250 g ai/ha, applied to paddy water at 2-leaf stage, visual rating after 13 to 15 d, scale 0 (no effect) to 100 (complete control)
Procedure, shortened: as §3

chickweed = test: Test C postemergence; type: in vivo, Stellaria media
Text: as §1

oilseed rape = test: Test C postemergence; type: in vivo, Brassica napus
Text: as §1

oat, wild = test: Test C postemergence; type: in vivo, Avena fatua
Text: as §1

pigweed = test: Test C postemergence; type: in vivo, Amaranthus retroflexus
Text: as §1

FC(F)(F)COc1nc(-c2ccc(Cl)cc2)nn1Cc1ccnc(C(F)(F)F)c1 [Compound 31]
90: Plant response rating, Barnyardgrass (barnyardgrass [1]; 125 g ai/ha) | Plant response rating, Barnyardgrass (barnyardgrass [1]; 500 g ai/ha, approx. 10 d) | Plant response rating, Barnyardgrass (barnyardgrass [2]; 500 g ai/ha) | Plant response rating (scale of 0 to 100 where 0 is no effect and 100 is complete control) (kochia; 31 g ai/ha) | Plant response rating (scale of 0 to 100 where 0 is no effect and 100 is complete control) (kochia; 62 g ai/ha) | Plant response rating (scale of 0 to 100 where 0 is no effect and 100 is complete control) (kochia; 125 g ai/ha) | Plant response rating (scale of 0 to 100 where 0 is no effect and 100 is complete control) (kochia; 250 g ai/ha) | Plant response rating (scale of 0 to 100 where 0 is no effect and 100 is complete control) (chickweed; 31 g ai/ha) | Plant response rating (scale of 0 to 100 where 0 is no effect and 100 is complete control) (oilseed rape; Oilsee Rape, 250 g ai/ha) | Plant response rating (scale of 0 to 100 where 0 is no effect and 100 is complete control) (oilseed rape; Oilseed Rape, 62 g ai/ha)
40: Plant response rating (scale of 0 to 100 where 0 is no effect and 100 is complete control) (ryegrass, Italian; 125 g ai/ha) | Plant response rating, Wheat (wheat; 500 g ai/ha) | Plant response rating (scale of 0 to 100 where 0 is no effect and 100 is complete control) (foxtail, giant; 125 g ai/ha) | Plant response rating (scale of 0 to 100 where 0 is no effect and 100 is complete control) (foxtail, giant; 250 g ai/ha) | Plant response rating, Barnyardgrass, Flood (barnyardgrass [3])
65: Plant response rating (scale of 0 to 100 where 0 is no effect and 100 is complete control) (ryegrass, Italian; 250 g ai/ha)
60: Plant response rating (scale of 0 to 100 where 0 is no effect and 100 is complete control) (morningglory; 62 g ai/ha) | Plant response rating (scale of 0 to 100 where 0 is no effect and 100 is complete control) (blackgrass; 125 g ai/ha)
100: Plant response rating (scale of 0 to 100 where 0 is no effect and 100 is complete control) (lambsquarters; 62 g ai/ha) | Plant response rating (scale of 0 to 100 where 0 is no effect and 100 is complete control) (lambsquarters; 125 g ai/ha) | Plant response rating (scale of 0 to 100 where 0 is no effect and 100 is complete control) (lambsquarters; 250 g ai/ha) | Plant response rating (scale of 0 to 100 where 0 is no effect and 100 is complete control) (morningglory; 250 g ai/ha) | Plant response rating, Sedge, Umbrella, Flood (sedge, umbrella) | Plant response rating (scale of 0 to 100 where 0 is no effect and 100 is complete control) (waterhemp; 125 g ai/ha) | Plant response rating (scale of 0 to 100 where 0 is no effect and 100 is complete control) (pigweed; 125 g ai/ha)
35: Plant response rating (scale of 0 to 100 where 0 is no effect and 100 is complete control) (nutsedge, yellow; 250 g ai/ha) | Plant response rating (scale of 0 to 100 where 0 is no effect and 100 is complete control) (blackgrass; 31 g ai/ha) | Plant response rating (scale of 0 to 100 where 0 is no effect and 100 is complete control) (foxtail, giant; 62 g ai/ha) | Plant response rating, Rice, Flood (rice) | Plant response rating (scale of 0 to 100 where 0 is no effect and 100 is complete control) (oat, wild; 62 g ai/ha)
75: Plant response rating (scale of 0 to 100 where 0 is no effect and 100 is complete control) (morningglory; 125 g ai/ha)
95: Plant response rating (scale of 0 to 100 where 0 is no effect and 100 is complete control) (morningglory; 31 g ai/ha) | Plant response rating (scale of 0 to 100 where 0 is no effect and 100 is complete control) (waterhemp; 31 g ai/ha) | Plant response rating (scale of 0 to 100 where 0 is no effect and 100 is complete control) (chickweed; 62 g ai/ha) | Plant response rating (scale of 0 to 100 where 0 is no effect and 100 is complete control) (chickweed; 125 g ai/ha) | Plant response rating (scale of 0 to 100 where 0 is no effect and 100 is complete control) (chickweed; 250 g ai/ha) | Plant response rating (scale of 0 to 100 where 0 is no effect and 100 is complete control) (pigweed; 31 g ai/ha)
10: Plant response rating (scale of 0 to 100 where 0 is no effect and 100 is complete control) (wheat (winter wheat); 125 g ai/ha)
30: Plant response rating (scale of 0 to 100 where 0 is no effect and 100 is complete control) (ryegrass, Italian; 62 g ai/ha) | Plant response rating (scale of 0 to 100 where 0 is no effect and 100 is complete control) (nutsedge, yellow; 62 g ai/ha) | Plant response rating (scale of 0 to 100 where 0 is no effect and 100 is complete control) (nutsedge, yellow; 125 g ai/ha) | Plant response rating, Wheat (wheat; 125 g ai/ha) | Plant response rating, Corn (corn; 500 g ai/ha) | Plant response rating (scale of 0 to 100 where 0 is no effect and 100 is complete control) (oat, wild; 31 g ai/ha)
5: Plant response rating (scale of 0 to 100 where 0 is no effect and 100 is complete control) (wheat (winter wheat); 31 g ai/ha) | Plant response rating (scale of 0 to 100 where 0 is no effect and 100 is complete control) (wheat (winter wheat); 62 g ai/ha)
85: Plant response rating (scale of 0 to 100 where 0 is no effect and 100 is complete control) (oilseed rape; Oilseed Rape, 31 g ai/ha) | Plant response rating (scale of 0 to 100 where 0 is no effect and 100 is complete control) (oilseed rape; Oilseed Rape, 125 g ai/ha)
80: Plant response rating (scale of 0 to 100 where 0 is no effect and 100 is complete control) (blackgrass; 250 g ai/ha) | Plant response rating (scale of 0 to 100 where 0 is no effect and 100 is complete control) (oat, wild; 125 g ai/ha) | Plant response rating (scale of 0 to 100 where 0 is no effect and 100 is complete control) (oat, wild; 250 g ai/ha)
50: Plant response rating, Barnyardgrass (barnyardgrass [2]; 125 g ai/ha) | Plant response rating (scale of 0 to 100 where 0 is no effect and 100 is complete control) (blackgrass; 62 g ai/ha)
20: Plant response rating (scale of 0 to 100 where 0 is no effect and 100 is complete control) (ryegrass, Italian; 31 g ai/ha) | Plant response rating (scale of 0 to 100 where 0 is no effect and 100 is complete control) (nutsedge, yellow; 31 g ai/ha) | Plant response rating, Corn (corn; 125 g ai/ha) | Plant response rating (scale of 0 to 100 where 0 is no effect and 100 is complete control) (wheat (winter wheat); 250 g ai/ha)
15: Plant response rating (scale of 0 to 100 where 0 is no effect and 100 is complete control) (foxtail, giant; 31 g ai/ha)
98: Plant response rating (scale of 0 to 100 where 0 is no effect and 100 is complete control) (lambsquarters; 31 g ai/ha) | Plant response rating (scale of 0 to 100 where 0 is no effect and 100 is complete control) (waterhemp; 62 g ai/ha) | Plant response rating (scale of 0 to 100 where 0 is no effect and 100 is complete control) (waterhemp; 250 g ai/ha) | Plant response rating (scale of 0 to 100 where 0 is no effect and 100 is complete control) (pigweed; 62 g ai/ha) | Plant response rating (scale of 0 to 100 where 0 is no effect and 100 is complete control) (pigweed; 250 g ai/ha)
